The test system of assay [1] is E. coli SK2. In words: MIC, micro broth dilution. The format is cell-based, Escherichia coli. The conditions noted are these: agent alone. On the procedure:
(§1) An assay was made using a minimum inhibitory concentration (MIC) and minimum bactericidal concentration (MBC) and minimum fungicidal concentration (MFC) determination. The MIC was determined by the micro broth dilution method in 96-well plates. Serial two-fold dilutions of tetrasodium EDTA (from 2% to 0.015%), ethanol (from 50% to 0.1%) and chlorhexidine HCl (from 100 μg/mL to 0.025 μg/mL) were prepared in MH broth with a final volume of 90 μL per well. A 10 μL containing 1×10^5 bacterial cells or 2×10^3 fungal cells were added to each well. The inoculated plates were covered with a lid, sealed with Parafilm, and incubated for 24 h at 37° C. with slight rocking on a tilting platform shaker. After incubation, the optical density at 600 nm (OD 600) of the cultures in each well was measured using an xMark™ Microplate Absorbance Spectrophotometer (Bio-Rad). […] MBCs and MFCs were determined by transferring 100 μL from each well with no apparent growth onto appropriate agar plates, followed by incubation for 24 h at 37° C.
(In general: In broth dilution the organism is exposed to a series of concentrations in liquid medium.)

The test system of assay [2] is Candida albicans SK4b. In words: Checkerboard FBEC index, 48-h biofilm. The class given is cell-based. The conditions noted are these: C. albicans SK4b biofilm; EDTA + chlorhexidine HCl.
Procedure: (§4) In step (4), microtiter plates are incubated at 37° C. for 24 h. then (6), after incubation, the bacterial and fungal cells were dislodged from the pegs into the recovery medium described above.
(§5) Three 10-μL aliquots, for a total of 30 μL from each well of recovery medium, were spotted on MH agar plates and incubated for 24 h at 37° C. […] The FBEC determination is a modification of the FICI.
Assay [3] has as its system C. albicans ON47. In words: MBC/MFC determination. The class given is cell-based, Candida albicans. The conditions noted are these: agent alone. As for the experimental part:
as §1

Assay [4] concerns MRSA ON184. In words: MBC/MFC determination. The class given is cell-based, Staphylococcus aureus. The conditions noted are these: agent alone. On the procedure: as §1
The test system of assay [5] is E. coli SK2. As to the kind of experiment: MBC/MFC determination. The note with it: agent alone. The format is cell-based, Escherichia coli. As for the experimental part: as §1
Assay [6] concerns MRSA ON184. As to the kind of experiment: Checkerboard FBEC index, 48-h biofilm. The format is cell-based, Staphylococcus aureus. The conditions noted are these: EDTA + chlorhexidine HCl.
Procedure: as §4, §5
Assay [7] relates to MRSA ON184. As to the kind of experiment: MBEC assay, 48-h biofilm. The class given is cell-based, Staphylococcus aureus. The note with it: MRSA ON184 48-h biofilm; 24 h exposure. As for the experimental part:
(§2) A biofilm cultivation cell composition was provided. This fifth composition was created using an MBEC Assay® biofilm inoculator, consisting of a polystyrene lid with 96 downward-protruding pegs and a corresponding base used to grow biofilms. A standardized inoculum was diluted in an appropriate biofilm growth medium to achieve a viable cell count of 1.5×10^6 CFU/mL of bacterial cells or 5×10^5 CFU/mL of fungal cells. Then, 150 μL of this inoculum was transferred into each appropriate well, and the peg lids were inserted into the microtiter plates. The plates were sealed with Parafilm and were incubated at optimum temperature for 48 h with slight rocking for bacteria and shaking at 200 rpm for fungal strains. After incubation, the peg lid was removed from the base and rinsed twice with sterile phosphate-buffered saline (PBS) for 2 min to remove loosely attached non-sessile cells. Before the antimicrobial challenge, the pegs in column 1 (n=8) were considered the biofilm growth control; these pegs were removed from the lids, placed into 200 μL of recovery medium, and analyzed for starting biofilm cell numbers as described below. […] MBEC values were determined as the minimum concentration of antimicrobials that yielded a viable cell count at or lower than the 125 CFU/mL detection limit.

Assay [8] deals with C. albicans ON47. As to the kind of experiment: Checkerboard FBEC index, 48-h biofilm. The conditions noted are these: EDTA + chlorhexidine HCl. The class given is cell-based, Candida albicans.
Procedure: as §4
Three 10-μL aliquots, for a total of 30 μL from each well of recovery medium, were spotted on MH agar plates and incubated for 24 h at 37° C.
A further assay deals with S. epidermidis SK9. In words: MBC/MFC determination. The format is cell-based, Staphylococcus epidermidis. The note with it: agent alone. As for the experimental part: as §1
In assay [9] the test system is MRSA ON184. As to the kind of experiment: MIC, micro broth dilution. The class given is cell-based, Staphylococcus aureus. The conditions noted are these: agent alone. On the procedure: as §1
In the next assay the test system is Proteus mirabilis ON153. As to the kind of experiment: MBEC assay, 48-h biofilm. The class given is cell-based. The note with it: P. mirabilis ON153 48-h biofilm; 24 h exposure. On the procedure:
(§3) A biofilm cultivation cell composition was provided. This fifth composition was created using an MBEC Assay® biofilm inoculator, consisting of a polystyrene lid with 96 downward-protruding pegs and a corresponding base used to grow biofilms. A standardized inoculum was diluted in an appropriate biofilm growth medium to achieve a viable cell count of 1.5×10^6 CFU/mL of bacterial cells or 5×10^5 CFU/mL of fungal cells. Then, 150 μL of this inoculum was transferred into each appropriate well, and the peg lids were inserted into the microtiter plates. The plates were sealed with Parafilm and were incubated at optimum temperature for 48 h with slight rocking for bacteria and shaking at 200 rpm for fungal strains. After incubation, the peg lid was removed from the base and rinsed twice with sterile phosphate-buffered saline (PBS) for 2 min to remove loosely attached non-sessile cells. Before the antimicrobial challenge, the pegs in column 1 (n=8) were considered the biofilm growth control; these pegs were removed from the lids, placed into 200 μL of recovery medium, and analyzed for starting biofilm cell numbers as described below. The rinsed pegs were placed into new 96-well plates containing two-fold dilutions of antimicrobials such as tetrasodium EDTA (4%-0.0125%), ethanol (100%-0.2%), and chlorhexidine HCl (100 μg/mL-0.4 μg/mL) in 200 μL of suitable biofilm growth medium per well and incubated at optimum temperature for 24 h. After the antimicrobial challenge, the pegs were rinsed twice with sterile PBS for 2 min and placed into a new 96-well plate containing 200 μL of recovery medium. The recovery plates were sealed with Parafilm, and biofilm cells were dislodged from the pegs by sonication for 30 min with a Branson 3510 bath sonicator. The biofilm cells in the recovery medium were serially diluted, and a drop dilution assay was performed to enumerate the viable cells. MBEC values were determined as the minimum concentration of antimicrobials that yielded a viable cell count at or lower than the 125 CFU/mL detection limit.

Assay [10] deals with Candida albicans SK4b. In words: MBEC assay, 48-h biofilm. The class given is cell-based. The conditions noted are these: C. albicans SK4b 48-h biofilm; 24 h exposure. As for the experimental part:
as §3

Assay [11] deals with Pseudomonas aeruginosa SK1. In words: MBEC assay, 48-h biofilm. The format is cell-based. The conditions noted are these: P. aeruginosa SK1 48-h biofilm; 24 h exposure. As for the experimental part:
as §3

Assay [12] deals with Staphylococcus aureus ON89. As to the kind of experiment: MBEC assay, 48-h biofilm. The format is cell-based. The conditions noted are these: S. aureus ON89 48-h biofilm; 24 h exposure. As for the experimental part:
as §3

The subject of a further assay is Escherichia coli SK2. As to the kind of experiment: MBEC assay, 48-h biofilm. The format is cell-based. The note with it: E. coli SK2 48-h biofilm; 24 h exposure. As for the experimental part: as §3
Assay [13] has as its system Staphylococcus epidermidis SK9. As to the kind of experiment: MBEC assay, 48-h biofilm. The format is cell-based. The conditions noted are these: S. epidermidis SK9 48-h biofilm; 24 h exposure. As for the experimental part: as §3
Assay [14] relates to C. albicans ON47. As to the kind of experiment: MBEC assay, 48-h biofilm. The class given is cell-based, Candida albicans. The conditions noted are these: C. albicans ON47 48-h biofilm; 24 h exposure. On the procedure: as §2

The values that follow come from patent US20230263758A1, “COMPOSITIONS OF EDTA HAVING ACTIVITY AGAINST PLANKTONIC AND BIOFILM CELLS OF CLINICALLY RELEVANT PATHOGENS” (SterileCare Inc., priority 2022, published 2023).

Regarding `O=C([O-])CN(CCN(CC(=O)[O-])CC(=O)[O-])CC(=O)[O-].[Na+].[Na+].[Na+].[Na+]` [EDTA, tetrasodium EDTA], the results for the MIC in the assay with E. coli SK2 [1] and with MRSA ON184 [9] were 0.5 % w/v and 0.063 % w/v, respectively. The “Biofilm eradication concentration in combination (FBEC)” value in the assay with Candida albicans SK4b [2] amounted to 0.063 % w/v; in the assay with MRSA ON184 [6], 0.031 % w/v; in the assay on C. albicans ON47 [8], 0.031 % w/v. The MBC/MFC against C. albicans ON47 [3] amounted to 1 % w/v; with MRSA ON184 [4], 2 % w/v; with E. coli SK2 [5], 0.5 % w/v; against S. epidermidis SK9 it was 0.5 % w/v. Also, the MBEC worked out at 2 % w/v in the assay on MRSA ON184 [7]; 4 % w/v with Proteus mirabilis ON153; 1 % w/v in the assay on Candida albicans SK4b [10]; 4 % w/v in assay [11]; 4 % w/v in assay [12]; 2 % w/v in the assay with Escherichia coli SK2. In addition, the MBEC in assay [13] is reported as 2 % w/v; in the assay with C. albicans ON47 [14], 1 % w/v.
